Results from patent publication US20250059184A1 (priority 2021, published 2025).

What was measured:
5-HT2A [1] = target: T1, 5-HT2A (Homo sapiens, UniProt P28223); experiment: Serotonin 5-HT2A in vitro cellular IPOne agonism assay (HTRF); type: cell-based; parameters: host or cells: CHO-K1; details: CHO-K1 cells, agonist mode
Experimental: (§1) Serotonin 5-HT2A In Vitro Cellular IPOne Agonism Assay. The 5-HT2A IPOne HTRF assay was performed at Epics Therapeutics S.A. (Belgium, FAST-0505I) using conventional methods. Briefly, CHO-K1 cells expressing human recombinant 5-HT2A receptor grown to mid-log phase in culture media without antibiotics were detached with PBS-EDTA, centrifuged, and resuspended in medium without antibiotics buffer. 20,000 cells were distributed in a 96 well plate and incubated overnight at 37° C. with 5% Co2.
For agonist testing, the medium was removed and 20 μl of assay buffer plus 20 μl of test compound or reference agonist were added in each well. The plate was incubated for 60 min. at 37° C. with 5% CO2.
(§2) After addition of the lysis buffer containing IP1-d2 and anti-IP1 cryptate detection reagents, plates were incubated 1-hour at room temperature, and fluorescence ratios were measured according to the manufacturer specification, with the HTRF kit.

5-HT2A [2] = target: T1, 5-HT2A; experiment: Serotonin 5-HT2A in vitro radioligand binding competition assay ([3H]-DOI); parameters: purchased Epics Therapeutics S.A. (Belgium) FAST-0505B; details: [3H]-DOI radiotracer, membrane extracts
Experimental: Serotonin 5-HT2A In Vitro Radioligand Binding Competition Assay. The 5-HT2A radioligand binding competition assay was performed at Epics Therapeutics S.A. (Belgium, FAST-0505B) using conventional methods. Briefly, competition binding was performed in duplicate in the wells of a 96 well plate (Master Block, Greiner, 786201) containing binding buffer (optimized for each receptor), membrane extracts (amount of protein/well optimized for each receptor), radiotracer [^3H]-DOI (final concentration optimized for each receptor) and test compound. Nonspecific binding was determined by co-incubation with 200-fold excess of cold competitor. The samples were incubated in a final volume of 0.1 ml at a temperature and for a duration optimized for each receptor and then filtered over filter plates. Filters were washed six times with 0.5 ml of ice-cold washing buffer (optimized for each receptor) and 50 μl of Microscint 20 (Packard) were added in each well. The plates were incubated 15 min on an orbital shaker and then counted with a TopCount™ for 1 min/well.

5-HT2A [3] = target: T1, 5-HT2A; experiment: Serotonin 5-HT2A in vitro cellular IPOne antagonism assay (HTRF); type: cell-based; parameters: host or cells: CHO-K1; details: CHO-K1 cells, reference agonist α-Me-5HT; read-out: 5-HT2A IPOne Antagonist Activity
Experimental: as §1, with “Antagonism” for “Agonism”, “FAST-O0505) in antagonism mode” for “FAST-0505I)”
For antagonist testing, a reference agonist α-Me-5HT was added and fluorescence signal monitored for several minutes, followed by addition of 20 μl of assay buffer plus 20 μl of test compound or reference antagonist ketanserin, in each well. The plate was incubated for 60 min. at 37° C. with 5% CO2.
as §2

T1 sequence (P28223 whole entry): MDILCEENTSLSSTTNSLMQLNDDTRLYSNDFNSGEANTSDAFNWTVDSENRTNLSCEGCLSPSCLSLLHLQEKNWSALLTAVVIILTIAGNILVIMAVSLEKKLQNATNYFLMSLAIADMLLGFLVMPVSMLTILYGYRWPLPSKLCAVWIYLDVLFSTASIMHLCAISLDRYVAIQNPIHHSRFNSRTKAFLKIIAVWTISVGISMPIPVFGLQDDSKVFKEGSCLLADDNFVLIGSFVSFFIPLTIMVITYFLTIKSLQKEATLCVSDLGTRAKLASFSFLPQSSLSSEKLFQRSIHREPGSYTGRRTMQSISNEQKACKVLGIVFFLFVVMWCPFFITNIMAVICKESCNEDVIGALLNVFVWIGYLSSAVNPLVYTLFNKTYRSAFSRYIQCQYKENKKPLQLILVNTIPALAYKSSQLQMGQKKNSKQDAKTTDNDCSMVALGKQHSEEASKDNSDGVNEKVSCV

Compound	EC50 (5-HT2A [1]) [µM]	IC50 (5-HT2A [2]) [µM]	IC50 (5-HT2A [3]) [µM]
Cc1ccc2cnc(CC(C)N)n2c1 (stereo not drawn) [Compound 10, 1-(6-methylimidazo[1,5-a]pyridin-3-yl)propan-2-amine]	1 to 10	1 to 10	–
CC(Cc1cnc2cc(F)ccn12)N(C)C (stereo not drawn) [Compound 38, 1-(7-Fluoroimidazo[1,2-a]pyridin-3-yl)-N,N-dimethylpropan-2-amine]	> 10	> 10	–
NCCc1ncn2ccccc12 [Compound 39, 2-(Imidazo[1,5-a]pyridin-1-yl)ethan-1-amine]	1 to 10	1 to 10	–
CC(Cc1ncc2ccccn12)N(C)C (stereo not drawn) [Compound 15, 1-(imidazo [1,5-a]pyridin-3-yl)-N,N-dimethylpropan-2-amine]	> 10	1 to 10	1 to 10
CC(N)Cc1cnc2ccccn12 (stereo not drawn) [Compound 33, 1-(imidazo[1,2-a]pyridin-3-yl)propan-2-amine]	> 10	> 10	–
Cc1nc(CC(C)N)n2ccc(F)cc12 (stereo not drawn) [Compound 5, 1-(7-fluoro-1-methylimidazo [1,5-a]pyridin-3-yl)propan-2-amine]	1 to 10	1 to 10	–
COc1ccn2c(CC(C)N)cnc2c1 (stereo not drawn) [Compound 34, 1-(7-methoxyimidazo[1,2-a]pyridin-3-yl)propan-2-amine]	> 10	> 10	–
COc1ccn2c(CC(C)N(C)C)ncc2c1 (stereo not drawn) [Compound 16, 1-(7-methoxyimidazo[1,5-a]pyridin-3-yl)-N,N-dimethylpropan-2-amine]	> 10	> 10	–
CC(Cc1ncn2ccccc12)N(C)C (stereo not drawn) [Compound 44, 1-(imidazo [1,5-a]pyridin-1-yl)-N,N-dimethylpropan-2-amine]	> 10	1 to 10	0.101 to 1
C[C@@H](Cc1ncc2ccccn12)N(C)C [Compound 29, (S)-1-(imidazo[1,5-a]pyridin-3-yl)-N,N-dimethylpropan-2-amine]	> 10	1 to 10	–
CC(N)Cc1ncn2ccccc12 (stereo not drawn) [Compound 40, 1-(imidazo[1,5-a]pyridin-1-yl)propan-2-amine]	> 10	1 to 10	–
CC(C)NC(C)Cc1ncc2ccccn12 (stereo not drawn) [Compound 26, 1-(imidazo [1,5-a]pyridin-3-yl)-N-isopropylpropan-2-amine]	> 10	0.101 to 1	0.101 to 1
Cc1cccn2c(CC(C)N(C)C)ncc12 (stereo not drawn) [Compound 21, N,N-dimethyl-1-(8-methylimidazo [1,5-a]pyridin-3-yl)propan-2-amine]	> 10	1 to 10	–
CN(C)C(C)(C)Cc1ncc2ccccn12 [Compound 19, 1-(imidazo [1,5-a]pyridin-3-yl)-N,N,2-trimethylpropan-2-amine]	> 10	1 to 10	1 to 10
COc1ccn2c(CC(C)N)ncc2c1 (stereo not drawn) [Compound 3, 1-(7-methoxyimidazo[1,5-a]pyridin-3-yl)propan-2-amine]	> 10	1 to 10	–
NCCc1ncc2ccccn12 [Compound 1, 2-(imidazo[1,5-a]pyridin-3-yl)ethan-1-amine]	> 10	1 to 10	–
CC(N)Cc1cnn2ccccc12 (stereo not drawn) [Compound 48, 1-(pyrazolo[1,5-a]pyridin-3-yl)propan-2-amine]	1 to 10	> 10	–
CC(Cc1cnc2ccccn12)N(C)C (stereo not drawn) [Compound 36, 1-(imidazo[1,2-a]pyridin-3-yl)-N,N-dimethylpropan-2-amine]	> 10	> 10	–
NCCc1cnn2ccccc12 [Compound 47, 2-(Pyrazolo[1,5-a]pyridin-3-yl)ethan-1-amine]	> 10	> 10	–
Cc1nc(CCN)c2ccccn12 [Compound 41, 2-(3-methylimidazo[1,5-a]pyridin-1-yl)ethan-1-amine]	> 10	> 10	–

Compound	EC50 (5-HT2A [1]) [µM]	IC50 (5-HT2A [2]) [µM]	IC50 (5-HT2A [3]) [µM]
Cc1ccc2cnc(CC(C)N(C)C)n2c1 (stereo not drawn) [Compound 23, N,N-dimethyl-1-(6-methylimidazo [1,5-a]pyridin-3-yl)propan-2-amine]	> 10	> 10	–
CC(Cc1ncc2ccccn12)N1CCCC1 (stereo not drawn) [Compound 27, 3-(2-(pyrrolidin-1-yl)propyl)imidazo[1,5-a]pyridine]	> 10	1 to 10	1 to 10
Cc1nc(CC(C)N(C)C)n2ccccc12 (stereo not drawn) [Compound 24, N,N-dimethyl-1-(1-methylimidazo [1,5-a]pyridin-3-yl)propan-2-amine]	> 10	> 10	–
Cc1ccn2c(CC(C)N(C)C)ncc2c1 (stereo not drawn) [Compound 22, N,N-dimethyl-1-(7-methylimidazo [1,5-a]pyridin-3-yl)propan-2-amine]	> 10	> 10	–
Cc1nc(CC(C)N)c2ccc(F)cn12 (stereo not drawn) [Compound 42, 1-(6-fluoro-3-methylimidazo[1,5-a]pyridin-1-yl)propan-2-amine]	1 to 10	1 to 10	–
CN1CCCC1Cc1ncc2ccccn12 (stereo not drawn) [Compound 31, 3-((1-Methylpyrrolidin-2-yl)methyl)imidazo[1,5-a]pyridine]	> 10	1 to 10	0.101 to 1
CC(N)Cc1ncc2cc(F)ccn12 (stereo not drawn) [Compound 4, 1-(7-fluoroimidazo[1,5-a]pyridin-3-yl)propan-2-amine]	> 10	0.101 to 1	1 to 10
Cc1nc(CCN(C)C)c2ccccn12 [Compound 45, N,N-dimethyl-2-(3-methylimidazo [1,5-a]pyridin-1-yl)ethan-1-amine]	> 10	> 10	–
CC(Cc1ncc2ccccn12)N1CCOCC1 (stereo not drawn) [Compound 28, 4-(1-(Imidazo[1,5-a]pyridin-3-yl)propan-2-yl)morpholine]	> 10	1 to 10	–
CC(N)Cc1cnc2cc(F)ccn12 (stereo not drawn) [Compound 35, 1-(7-Fluoroimidazo[1,2-a]pyridin-3-yl)propan-2-amine]	> 10	> 10	–
CN(C)CCc1cnn2ccccc12 [Compound 49, N,N-dimethyl-2-(pyrazolo[1,5-a]pyridin-3-yl)ethan-1-amine]	> 10	> 10	–
CC(N)Cc1ncc2ccccn12 (stereo not drawn) [Compound 2, 1-(imidazo [1,5-a]pyridin-3-yl)propan-2-amine]	0.101 to 1	1 to 10	–
COc1ccn2c(CC(C)N(C)C)cnc2c1 (stereo not drawn) [Compound 37, 1-(7-Methoxyimidazo[1,2-a]pyridin-3-yl)-N,N-dimethylpropan-2-amine]	> 10	> 10	–
CCN(CC)C(C)Cc1ncc2ccccn12 (stereo not drawn) [Compound 25, N,N-diethyl-1-(imidazo[1,5-a]pyridin-3-yl)propan-2-amine]	> 10	1 to 10	–
Cc1cccc2cnc(CC(C)N)n12 (stereo not drawn) [Compound 7, 1-(5-methylimidazo[1,5-a]pyridin-3-yl)propan-2-amine]	1 to 10	1 to 10	–
Cc1nc(CC(C)N(C)C)c2ccc(F)cn12 (stereo not drawn) [Compound 46, 1-(6-fluoro-3-methylimidazo [1,5-a]pyridin-1-yl)-N,N-dimethylpropan-2-amine]	> 10	1 to 10	–
Cc1cccc2cnc(CC(C)N(C)C)n12 (stereo not drawn) [Compound 20, N,N-dimethyl-1-(5-methylimidazo [1,5-a]pyridin-3-yl)propan-2-amine]	> 10	> 10	–
CC(Cc1cnn2ccccc12)N(C)C (stereo not drawn) [Compound 50, N,N-dimethyl-1-(pyrazolo[1,5-a]pyridin-3-yl)propan-2-amine]	> 10	> 10	–
Cc1nc(CC(C)N)n2ccccc12 (stereo not drawn) [Compound 11, 1-(1-methylimidazo[1,5-a]pyridin-3-yl)propan-2-amine]	1 to 10	1 to 10	–
Cc1nc(CC(C)N(C)C)n2ccc(F)cc12 (stereo not drawn) [Compound 18, 1-(7-fluoro-1-methylimidazo [1,5-a]pyridin-3-yl)-N,N-dimethylpropan-2-amine]	> 10	1 to 10	–
